Experimental data from paper PMC10447463, “Data-mining unveils structure–property–activity correlation of viral infectivity enhancing self-assembling peptides” (Nature Communications, 2023).
Read-outs that look alike come from different tables or passages of the source.

Assays:
[1] = test system: TZM-bl cells; type: cell-based; conditions: CellTiter-Glo, mean of n = 3 replicates; for viability 0.26 µM: peptide 0.26 µM; for viability 1.3 µM: peptide 1.3 µM; for viability 6.5 µM: peptide 6.5 µM
Procedure, shortened: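 Viability of TZM-bl cells (10,000 seeded) after 3 days with serially diluted peptides, measured by CellTiter-Glo luminescence. Values normalized to 100% metabolic activity; triplicates.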

[2] = Zeta-potential measurement; type: physicochemical; conditions: for Zeta-pot. / mV: zeta potential of peptide, Fig S15 source data
Procedure, shortened: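 Peptides from a 10 mg/mL DMSO stock were brought to 1 mg/mL in PBS (pH 7.4) and aged 1 d at RT. Just before reading, they were diluted into 1 mM aqueous KCl, and zeta potential was calculated from electrophoretic mobility with the Smoluchowski formula.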

[3] = β-sheet content by ATR-FT-IR; type: physicochemical
Procedure, shortened: (§1)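 Fluorescamine labelling (20 min RT, λex 365/λem 470 nm) of 3 kDa-MWCO filtrate and unfiltered fibril samples, redissolved in DMSO, gave conversion rate as 100 minus the percentage filtrate/original intensity, in triplicate. Secondary structure was quantified by ATR FT-IR on lyophilized 1 mg/mL fibrils, 64 scans.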

[4] = Conversion rate (CR) assay with fluorescamine; type: physicochemical
Procedure, shortened: as §1

Substance	viability 0.26 µM [1]	viability 1.3 µM [1]	viability 6.5 µM [1]	Zeta category ( +1 = if > 4 mV;-1 = if < -4 mV; 0 = -4mV to 4 mV) [2]	Zeta Pot. / mV ([2]; mean, Std in separate column)	Zeta-pot. / mV [2]	Zeta category ( +1 = if > 4 mV;-1 = if < -4 mV; 0 = -4mV to 4 mV) ([2]; category from zeta potential)	Zeta Pot. / mV ([2]; mean, Std Zeta in next column)	FTIR ß-sheet content/ % [3]	FTIR ß-sheet content/ % ([3]; ATR-FT-IR)	Zeta Pot. / mV [2]	Conversion Rate / % [4]	Conversion Rate / % ([4]; fluorescamine assay)	Zeta category ( +1 = if > 4 mV;-1 = if < -4 mV; 0 = -4mV to 4 mV) ([2]; FigS26)
KIKIKIKIWW [TM21]	95.22	94.23	80.72	1 (+1 = if > 4 mV)	15.4 mV	15.4 mV	–	–	–	–	–	–	–	–
RGDSGGGGGGKIKIQIC [TM114 / RC17]	105.8	97.96	78.89	–	–	16.7 mV	–	–	–	–	–	–	–	–
RGDKIKIQINMWQ [MG9a]	104.4	105.9	88.59	1 (+1 = if > 4 mV)	6.59 mV	6.59 mV	1 (+1 = if > 4 mV)	6.59 mV	–	–	–	–	–	–
KFKFQFFF [TG12]	108.2	109.4	97	1 (+1 = if > 4 mV)	13.27 mV	13.27 mV	–	–	49.11%	49.11%	13.27 mV	97.92%	97.92%	–
RLRLTLC [CN13]	120.7	120.4	108.4	1 (+1 = if > 4 mV)	–	19.67 mV	–	–	–	20.69%	19.67 mV	–	87.44%	–
RGDKIKIQINM [MG8a / CN17]	107.7	105.2	86.63	1 (+1 = if > 4 mV)	16.43 mV	16.43 mV	–	–	45.52%	45.52%	16.43 mV	73.83%	73.83%	–
HHHHKAKAKAKAYYYY [TM10]	107.4	112.1	104.4	1 (+1 = if > 4 mV)	–	7.03 mV	–	–	–	–	7.03 mV	–	–	–
RGEKIKIQINM [CN18]	93.96	87.66	79.74	1 (+1 = if > 4 mV)	–	15.3 mV	–	–	–	43.05%	15.3 mV	–	80.28%	–
RGECKFKFQF [CN16]	105.4	106.3	102.8	1 (+1 = if > 4 mV)	–	23.97 mV	–	–	–	46.18%	23.97 mV	–	98.71%	–
RGDKIKIQINMC [psis29]	103.4	101.5	82.89	1 (+1 = if > 4 mV)	12.2 mV	12.2 mV	–	–	–	–	–	–	–	1 (+1 = if > 4 mV)
HHHHKIKIQINMYYYY [TM16]	118.7	114.9	85.37	1 (+1 = if > 4 mV)	–	7.807 mV	–	–	–	46.73%	7.807 mV	–	98.42%	–
CKIKIQIII [AR0 / F19]	109.6	100.4	87.63	1 (+1 = if > 4 mV)	16.2 mV	16.2 mV	–	–	–	–	–	–	–	–
CKIKIQIRGD [psis21]	104.5	107.1	97.19	–	–	7.157 mV	–	–	–	–	–	–	–	–
HIHIQIC [CN12]	99.21	105	101.2	0 (0 = -4mV to 4 mV)	–	-3.687 mV	–	–	–	48.25%	-3.687 mV	–	82.72%	–
